The source made the active and inactive calls. The calls are words filed in the database; no cut-off is given here.
Key:
SGC-7901 [1] = experiment: Induction of DNA damage in human SGC-7901 cells assessed as DNA fragmentation by measuring increase in comet tails by fluorescence microscope based comet assay; assay type: functional, cell-based; settings: dose 0-30 nmol/L
NCI-H520 = experiment: Antiproliferative activity against human NCI-H520 cells assessed as inhibition of cell growth incubated for 48 hrs by MTT assay; assay type: functional, cell-based; settings: NCI-H520, 48 h
SGC-7901 [2] = experiment: Induction of cell cycle arrest in human SGC-7901 cells assessed as reduction in cyclin B1 protein expression incubated for 48 hrs by Western blot analysis; assay type: functional, cell-based; settings: dose 0-30 nmol/L
MGC-803 [3] = experiment: Antitumor activity against human MGC-803 cells xenografted in BALB/c nude mouse assessed as reduction in tumor volume at 25 mg/kg/day, ip administered every day for 21 days; assay type: functional, organism-based; settings: time 21.0 day
PC-3 = experiment: Antiproliferative activity against human PC-3 cells assessed as inhibition of cell growth incubated for 48 hrs by MTT assay; assay type: functional, cell-based; settings: PC-3, 48 h
MGC-803 [4] = experiment: Induction of morphological changes in human MGC-803 cells assessed as reduction in cell density at 0 to 24 nmol/L incubated for 48 hrs by bright field microscopic analysis; assay type: functional, cell-based; settings: dose 0-24 nmol/L
MGC-803 [5] = experiment: Induction of morphological changes in human MGC-803 cells assessed as appearance of broken nucleus at 24 nM incubated for 48 hrs by DAPI staining based analysis; assay type: functional, cell-based
SGC-7901 [6] = experiment: Induction of morphological changes in human SGC-7901 cells assessed as appearance of broken nucleus at 30 nM incubated for 48 hrs by DAPI staining based analysis; assay type: functional, cell-based
MGC-803 [7] = experiment: Antitumor activity against human MGC-803 cells xenografted in BALB/c nude mouse assessed as reduction in tumor weight at 25 mg/kg/day, ip administered every day for 21 days; assay type: functional, organism-based; settings: time 21.0 day
HCT-116 = experiment: cells; settings: Homo sapiens, HCT-116, 48 h
Description: Antiproliferative activity against human HCT-116 cells assessed as inhibition of cell growth incubated for 48 hrs by MTT assay

DU-145 = experiment: Antiproliferative activity against human DU-145 cells assessed as inhibition of cell growth incubated for 48 hrs by MTT assay; assay type: functional, cell-based; settings: DU-145, 48 h
[8] = Nephrotoxicity in BALB/c nude mouse xenografted with human MGC-803 cells assessed as effect on creatinine level at 25 mg/kg/day, ip administered every day for 21 days; assay type: toxicity, organism-based; settings: in vivo, 504 h, time 21 day
[9] = Toxicity in BALB/c nude mouse xenografted with human MGC-803 cells assessed as reduction in body weight at 25 mg/kg/day, ip administered every day for 21 days; assay type: organism-based; settings: in vivo, 504 h, time 21 day
MGC-803 [10] = experiment: Induction of cell cycle arrest in human MGC-803 cells assessed as accumulation of cells at G2/M phase at 24 nmol/L incubated for 48 hrs (reference value: 33%); assay type: functional
MGC-803 [11] = experiment: Induction of morphological changes in human MGC-803 cells assessed as appearance of bright and shrunken nucleus at 0 to 24 nmol/L incubated for 48 hrs by DAPI staining based analysis; assay type: functional, cell-based; settings: dose 0-24 nmol/L

COc1ccc(CN(C(=O)CSC(=S)N2CCN(c3ccc(N)cc3)CC2)c2cc(OC)c(OC)c(OC)c2)cc1O
Activity (SGC-7901 [1]): Dose-Dependent Effect | IC50 (NCI-H520): 0.0225 µM | Activity (SGC-7901 [2]): Dose-Dependent Effect | Activity (MGC-803 [3]): Active | IC50 (PC-3): 0.0446 µM | Activity (MGC-803 [4]): Active | Activity (MGC-803 [5]): Active | Activity (SGC-7901 [6]): Active | Activity (MGC-803 [7]): Active | IC50 (HCT-116): 0.044 µM | IC50 (DU-145): 0.0499 µM | Activity [8]: Non-Toxic | Activity [9]: Non-Toxic | Activity (MGC-803 [10]): 60% | Activity (MGC-803 [11]): Active

Reference: ChEMBL document CHEMBL5346930, “Discovery of novel N-benzylarylamide-dithiocarbamate based derivatives as dual inhibitors of tubulin polymerization and LSD1 that inhibit gastric cancers” (Eur J Med Chem, 2023)
